Assay results published in patent US7462644B2, “Therapeutic agents” (AstraZeneca AB, priority 2002, dated 2008).

Target: T1, human PPAR alpha (Homo sapiens, UniProt Q07869)
T1 sequence (Q07869 1-468): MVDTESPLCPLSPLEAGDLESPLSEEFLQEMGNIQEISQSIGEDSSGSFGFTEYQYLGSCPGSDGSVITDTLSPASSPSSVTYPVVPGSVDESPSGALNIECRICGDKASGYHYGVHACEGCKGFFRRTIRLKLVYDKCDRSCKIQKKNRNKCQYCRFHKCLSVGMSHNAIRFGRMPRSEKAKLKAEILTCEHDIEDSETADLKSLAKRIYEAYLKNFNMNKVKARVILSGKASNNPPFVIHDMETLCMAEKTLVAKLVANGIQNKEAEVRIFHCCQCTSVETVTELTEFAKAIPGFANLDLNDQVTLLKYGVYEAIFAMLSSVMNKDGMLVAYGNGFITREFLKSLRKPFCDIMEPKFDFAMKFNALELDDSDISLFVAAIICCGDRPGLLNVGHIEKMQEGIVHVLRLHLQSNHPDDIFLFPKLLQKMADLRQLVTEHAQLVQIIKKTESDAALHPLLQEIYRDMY
Assay: PPARα EC50 assay (assays described in WO03/051821)
Format: cell-based
Experimental: The compounds of the invention were tested in the assays described in WO03/051821.

SMILES	EC50 [nM]
CCCCN(Cc1ccc(C(F)(F)F)cc1F)C(=O)COc1ccc(C[C@H](OCC)C(=O)O)cc1 [Example 1, (2S)-3-[4-(2-{Butyl[2-fluoro-4-(trifluoromethyl)benzyl]amino}-2-oxoethoxy)phenyl]-2-ethoxy propanoic Acid]	1
CCCCN(Cc1ccc(C(F)(F)F)cc1)C(=O)COc1ccc(C[C@H](OCC)C(=O)O)cc1 [Example 5]	3

Other lines, results leading:

EC50 [nM]	SMILES
3	CCO[C@@H](Cc1ccc(OCC(=O)N(CC)Cc2ccc(Cl)cc2)cc1)C(=O)O [Example 2, (2S)-3-(4-{2-[(4-Chlorobenzyl)(ethyl)amino]-2-oxoethoxy}phenyl)-2-ethoxypropanoic Acid]
3	CCO[C@@H](Cc1ccc(OCC(=O)N(CC)Cc2ccc(OC(F)(F)F)cc2)cc1)C(=O)O [Example 3]
5	CCO[C@@H](Cc1ccc(OCC(=O)N(CC)Cc2ccc(C(F)(F)F)cc2)cc1)C(=O)O [Example 4, (2S)-2-Ethoxy-3-[4-(2-{ethyl[4-(trifluoromethyl)benzyl]amino}-2-oxoethoxy)phenyl]propanoic Acid]
